This note sets out measurements from US5464617A, “β-lactam compounds” (Hoffmann-La Roche Inc., priority 1994, dated 1995).

Test [1] has as its system Citrobacter freundii 1982. The test is described as follows: MIC in vitro of a 1:4 combination of ceftriaxone with a compound of formula I (Test D). The test is classed as cell-based. Particulars: for MIC C. freundii 1982 (D): test D; for MIC C. freundii 1982: Table 2. As for the experimental part:
The minimum inhibitory concentration in vitro ([…]) of a 1:4 combination of ceftriaxone with a compound of formula I against Citrobacter freundii 1982 was measured and compiled in Table 2 hereinafter.

For another test, the system named is E. coli 1346. Description: Antibacterial activity of the products per se, serial dilution method in liquid medium (Test E). Particulars: product per se; for MIC E. coli 1346 (E): test E; for MIC E. coli 1346: Table 3, liquid medium. The test is classed as cell-based. From the text:
The antibacterial activity of the products per se is illustrated on the basis of Table 3 hereinafter, the minimum inhibitory concentration […] in vitro against E. coli 1346 being determined using the serial dilution method in liquid medium: […]

Setting [2] is: Table 4, 1:4 combination of ceftriaxone with the compound.
Setting [3] is: 1:4 combination of ceftriaxone with the compound.

Structures are written as SMILES. ≈ marks a conversion by molar mass, not a printed value. Structures can show the parent of a compound that is named as a salt. Where only a bound is given, the exact number is not on record here.

On to `CC(=O)N1C[C@H]2CC(CSc3nnnn3CC(N)=O)=C(C(=O)O)N3C(=O)[C@@H]1[C@@H]23` [70(a), (1aS,3aR,6bR)-2-Acetyl-5-(1-carbamoylmethyl-1H-tetrazol-5-ylsulphanylmethyl)-1-oxo-1a,2,3,3a,4,6b-hexahydro-1H-2,6a-diazacyclobut[cd]indene-6-carboxylic acid sodium salt], for which, in test [1] (Table 5, particularly preferred products, 1:4 combination with ceftriaxone), the “MIC C. freundii 1982 (D)” value was 0.5 µg/mL. In addition, in the test with E. coli 1346 (Table 5, particularly preferred products), the “MIC E. coli 1346 (E)” value was found to be 1 µg/mL.

In the case of `O=C(NCC(F)(F)F)OCC1=C(C(=O)O)N2C(=O)[C@H]3NC[C@@H](C1)[C@H]32` [Example 91, (1aS,3aR,6bR)-1-Oxo-5-(2,2,2-trifluoroethylcarbamoyloxymethyl)-1a,2,3,3a,4,6b-hexahydro-1H-2,6a-diazacyclobut[cd]indene-6-carboxylic acid trifluoroacetate], in test [1] (setting [2]), the “MIC C. freundii 1982 (D)” value turned out to be 2 µg/mL. Moreover, in the test on E. coli 1346 (Table 4), the “MIC E. coli 1346 (E)” value is 4 µg/mL.

With `CC(=O)N1C[C@H]2OC(CSc3nnnn3CC(N)=O)=C(C(=O)O)N3C(=O)[C@@H]1[C@@H]23` [32(e), (1aS,3aR,6bS)-2-Acetyl-5-(1-carbamoylmethyl-1H-tetrazol-5-ylsulphanylmethyl)-1-oxo-1,1a,2,3,3a,6b-hexahydro-4-oxa-2,6a-diazacyclobut[cd]indene-6-carboxylic acid sodium salt], the “MIC C. freundii 1982 (D)” value in test [1] (setting [2]) worked out at 2 µg/mL. In addition, the “MIC E. coli 1346 (E)” value in the test with E. coli 1346 (Table 4) was 4 µg/mL.

For the molecule `NC(=O)Cn1nnnc1SCC1=C(C(=O)O)N2C(=O)[C@H]3NC[C@@H](O1)[C@H]32` [Example 29(j), (1aS,3aR,6bS)-5-(1-Carbamoylmethyl-1H-tetrazol-5-ylsulphanylmethyl)-1-oxo-1,1a,2,3,3a,6b-hexahydro-4-oxa-2,6a-diazacyclobut[cd]indene-6-carboxylic acid], the “MIC C. freundii 1982 (D)” value in test [1] (setting [2]) was found to be 4 µg/mL. In addition, the “MIC E. coli 1346 (E)” value against E. coli 1346 (Table 4) worked out at 8 µg/mL (≈ 21.8 µM).

With `NC(=O)OCC1=C(C(=O)O)N2C(=O)[C@@H]3[C@H]2[C@H](C1)CN3C(=O)CSc1nnc(N)s1` [58(f), (1aS,3aR,6bR)-2-(5-Amino-1,3,4-thiadiazol-2-ylsulphanylacetyl)-5-carbamoyloxymethyl-1-oxo-1a,2,3,3a,4,6b-hexahydro-1H-2,6a-diazacyclobut[cd]indene-6-carboxylic acid sodium salt], the “MIC C. freundii 1982 (D)” value in test [1] (setting [2]) was found to be 0.12 µg/mL. Besides, the “MIC E. coli 1346 (E)” value in the test with E. coli 1346 (Table 4) was 8 µg/mL.

On to `O=C(O)C1=C(CSc2nnnn2CC(=O)N2CCOCC2)O[C@@H]2CN[C@@H]3C(=O)N1[C@@H]32` [29(l), (1aS,3aR,6bS)-5-(1-(2-Morpholin-4-yl-2-oxo-ethyl)-1H-tetrazol-5-ylsulphanylmethyl)-1-oxo-1,1a,2,3,3a,6 b-hexahydro-4-oxa-2,6a-diazacyclobut[cd]indene-6-carboxylic acid], for which the “MIC C. freundii 1982 (D)” value in test [1] (setting [2]) came to 32 µg/mL. Besides, in the test with E. coli 1346 (Table 4), the “MIC E. coli 1346 (E)” value is more than 32 µg/mL.

For `NC(=O)CNC(=O)OCC1=C(C(=O)O)N2C(=O)[C@H]3NC[C@@H](C1)[C@H]32` [Example 95, (1aS,3aR,6bR)-5-Carbamoylmethylcarbamoyloxymethyl-1-oxo-1a,2,3,3a,4,6b-hexahydro-1H-2,6a-diazacyclobut[cd]indene-6-carboxylic acid trifluoroacemte], in test [1] (setting [2]), the “MIC C. freundii 1982 (D)” value came out at 0.5 µg/mL. Further, in the test with E. coli 1346 (Table 4), the “MIC E. coli 1346 (E)” value is 4 µg/mL (≈ 12.3 µM).

With `CS(=O)(=O)OC1=C(C(=O)O)N2C(=O)[C@@H]3[C@H]2[C@H](C1)CN3C(=O)NCc1ccc(S(N)(=O)=O)cc1` [9(h), (1aS,3aR,6bR)-5-Methylsulphonyloxy-1-oxo-2-(4-sulphamoylbenzylcarbamoyl)-1a,2,3,3a,4,6b-hexahydro-1H-2,6a-diazacyclobut[cd]indene-6-carboxylic acid sodium salt], the “MIC C. freundii 1982” value in test [1] (setting [3]) was determined as 0.5 µg/mL. In addition, in the test with E. coli 1346, the “MIC E. coli 1346” value was 32 µg/mL.

With `O=C(O)C1=C(CSc2ccncc2)O[C@@H]2CN(C(=O)Nc3ccc(O)cc3)[C@@H]3C(=O)N1[C@@H]32` [31(d), (1aS,3aR,6bS)-2-(4-Hydroxy-phenylcarbamoyl)-1-oxo-5-(pyridin-4-ylsulphanylmethyl)-1,1a,2,3,3a,6b-hexahydro-4-oxa-2,6a-diazacyclobut[cd]indene-6-carboxylicacid sodium salt], the “MIC C. freundii 1982 (D)” value in test [1] (setting [2]) came out at 1 µg/mL. Besides, in the test with E. coli 1346 (Table 4), the “MIC E. coli 1346 (E)” value is more than 32 µg/mL.

Take `CC(=O)N1C[C@H]2OC(CSc3nnnn3CC(=O)NC3CC3)=C(C(=O)O)N3C(=O)[C@@H]1[C@@H]23` [32(d), (1a-S,3aR,6bS)-2-Acetyl-5-(1-cyclopropylcarbamoylmethyl-1H-tetrazol-5-ylsulphanylmethyl)-1-oxo-1,1a,2,3,3a,6b-hexahydro-4-oxa-2,6a-diazacyclobut[cd]indene-6-carboxylic acid sodium salt]: in test [1] (setting [2]), the “MIC C. freundii 1982 (D)” value is 16 µg/mL. Besides, the “MIC E. coli 1346 (E)” value in the test on E. coli 1346 (Table 4) came to 16 µg/mL.

Take `CC(=O)N1C[C@H]2OC(CSc3cc(C)nc4nc(C(N)=O)nn34)=C(C(=O)O)N3C(=O)[C@@H]1[C@@H]23` [32(c), (1aS,3aR,6bS)-2-Acetyl-5-(2-carbamoyl-S-methyl[1,2,4]-triazolo[1,5-a]pyrimidin-7-ylsulphanylmethyl)-1-oxo-1,1a,2,3,3a,6b-hexahydro-4-oxa-2,6a-diazacyclobut[cd]indene-6-carboxylic acid sodium salt]: the “MIC C. freundii 1982 (D)” value in test [1] (setting [2]) was found to be 32 µg/mL. The “MIC E. coli 1346 (E)” value in the test on E. coli 1346 (Table 4) turned out to be 4 µg/mL.

As for `Cn1nnnc1SCC1=C(C(=O)O)N2C(=O)[C@@H]3[C@H]2[C@H](C1)CN3C(=O)C(F)(F)F` [Example 19(c), (1aS,3aR,6bR)-5-(1-Methyl-1H-tetrazol-5-ylsulphanylmethyl)-1-oxo-2-trifluoracetyl-1a,2,3,3a,4,6b-hexahydro-1H-2,6a-diazacyclobut[cd]indene-6-carboxylic acid sodium salt], in test [1] (setting [2]), the “MIC C. freundii 1982 (D)” value was determined as 0.5 µg/mL. The “MIC E. coli 1346 (E)” value with E. coli 1346 (Table 4) amounted to 2 µg/mL.

With `Cn1nnnc1SCC1=C(C(=O)O)N2C(=O)[C@@H]3[C@H]2[C@@H](CN3C(=O)Nc2ccc(O)cc2)O1` [31(h), (1aS,3aR,6bS)-2-(4-hydroxy-phenylcarbamoyl)-5-(1-methyl-1H-tetrazol-5-ylsulphanylmethyl)-1-oxo-1,1a,2,3,3a,6b-hexahydro-4-oxa-2,6a-diazacyclobut[cd]indene-6-carboxylic acid sodium salt], the “MIC C. freundii 1982 (D)” value in test [1] (setting [2]) was determined as 0.5 µg/mL. Besides, the “MIC E. coli 1346 (E)” value against E. coli 1346 (Table 4) was found to be 8 µg/mL.

As to `Cn1nnnc1SCC1=C(C(=O)O)N2C(=O)[C@@H]3[C@H]2[C@H](C1)CN3C(=O)Nc1ccc(C(N)=O)cc1` [18(b), (1aS,3aR,6bR)-2-(4-Carbamoyl-phenylcarbamoyl)-5-(1-methyl-1H-tetrazol-5-ylsulphanylmethyl)-1-oxo-1a,2,3,3a,4,6b-hexahydro-1H-2,6a-diazacyclobut[cd]indene-6-carboxylic acid sodium salt], in test [1] (setting [3]), the “MIC C. freundii 1982” value came out at 0.25 µg/mL. In addition, the “MIC E. coli 1346” value against E. coli 1346 came out at 32 µg/mL.

For the molecule `CC(=O)NCC1=C(C(=O)O)N2C(=O)[C@@H]3[C@H]2[C@H](C1)CN3C(=O)Nc1ccc(O)cc1` [Example 85, (1aS,3aR,6bR)-5-Acetylaminomethyl-2-(4-hydroxy-phenylcarbamoyl)-1-oxo-1a,2,3,3a,4,6b-hexahydro-1H-2,6a-diazacyclobut[cd]indene-6-carboxylic acid sodium salt], the “MIC C. freundii 1982 (D)” value in test [1] (setting [2]) worked out at 0.5 µg/mL. In addition, in the test with E. coli 1346 (Table 4), the “MIC E. coli 1346 (E)” value was more than 32 µg/mL.
